Literature values in patent US6486349B1, “Amide therapeutics and methods for treating inflammatory bowel disease” (Centaur Pharmaceuticals, Inc., priority 1999, dated 2002).

Tested on: senescence-accelerated mice

CC(C)(C)/[N+]([O-])=C/c1ccccc1 [PBN, α-phenyl-t-butyl nitrone]
increase of the life span: one third
